In patent publication US20250275928A1, “NANOPARTICLE-BASED ABUSE-DETERRENT FORMULATIONS AND METHODS OF MAKING AND USING” (Purdue Research Foundation, priority 2021, published 2025):
≈ marks a conversion by molar mass, not a printed value.

Tests used:
[1] = Equilibrium solubility of thebaine in ethanol; assay type: physicochemical; conditions: organic solvent or mixture, thermodynamic from solid
Experimental: Chemical extractability of thebaine, a model opioid drug, as a mixture with a non-gel forming excipient, Avicel pH 102, or selected gel-forming polymers, was tested using absolute ethanol. […] Physical mixtures of thebaine (600 μg) with 150 mg Avicel or Avicel with selected polymers (80 mg XG, 20 mg XG+30 mg HEC, or 20 mg XG+60 mg CS) mg) were extracted in 1 mL of absolute ethanol for 1 h. Free thebaine without any excipients was also tested for comparison.

[2] = Thermal stability of thebaine (TGA, heating); assay type: physicochemical
[3] = Dissolution in simulated gastric fluid; conditions: after 12 and 24 h
[4] = Chemical extractability from nanocapsules by household solvents

Compound: COC1=CC=C2[C@H]3Cc4ccc(OC)c5c4[C@@]2(CCN3C)[C@H]1O5 [thebaine]
- solubility thermodynamic at 24 h ([1]; in 24 h): 10.4 mg/mL (≈ 33.4 mM)
- solubility thermodynamic at 72 h ([1]; in 72 h): 10.5 mg/mL (≈ 33.7 mM)
- drug that withstood heating ([2]; 180° C. for 10 min, drug alone): 86.9%
- temperature at which decomposition began (TGA) ([2]; thermogravimetric analysis): around 200 °C
- stability in SGF [3]: degraded
- solubility in household solvents ([4]; all tested solvents except for 0.9% NaCl and 0.1 M NaOH): soluble
- dissolution in household solvents ([4]; most solvents at equivalent concentrations): dissolves completely
